Assays:
[1] = Light sensitivity of C9 solutions; format: physicochemical; conditions: room light wavelengths <450 nm
Source text: The compounds of this invention can be prepared from readily available starting materials using general methods and procedures that will be apparent to one skilled in the art in view of the disclosure provided herein. It will be appreciated that where typical or preferred process conditions (i.e., reaction temperatures, times, mole ratios of reactants, solvents, pressures, etc.) are given, other process conditions can also be used unless otherwise stated. Optimum reaction conditions may vary with the particular reactants or solvent used, but such conditions can be determined by one skilled in the art by routine optimization procedures. […] If amber lighting is not available, then appropriate controls should be used to minimize solutions to light exposure e.g. aluminum foil wrapping, amber glassware
Test solutions on 1 g scale determined that 75-85% IPA/water gave good solubility (˜10:1 vol:wt), fine crystals that were filterable and solutions that could be heated and cooled to produce a predictable melt/crystallization. […] A hot filtration was required as a brown, material formed during crystallization when the solution was left exposed to room light for >1 h. This was only observed with the solution was exposed to light. Recovery was 92.7% of fine needles and UHPLC analysis of the supernatant was 91% a/a vs 99% for the solid indicating the supernatant was removing impurities. […]

[2] = Solvent screening for recrystallization (solubility of C9); format: physicochemical; conditions: for Hot to RT result: allowed to cool to RT; for RT to Cold result: cooled to 0° C.; for Hot Result: heated to approximately 45-50° C.
Procedure: 100 mg of C9 was placed in test tubes and solvent added and any change noted. Samples were then heated briefly with a heat gun (heating to approximately 45-50° C.), the solubility noted, allowed to cool to RT and solubility noted, then cooled to 0° C. and the solubility noted.

[3] = 70% IPA/H2O, approx conc. 100 mg/mL
[4] = 80% EtOH, approx conc. 50 mg/mL
[5] = 80% EtOH, approx conc. 100 mg/mL
[6] = 95% EtOH, approx conc. 100 mg/mL

Compound: CCCCCCCCCC1=C(C)C(=O)C(C)=C(C)C1=O [Compound C9, 2,3,5-trimethyl-6-nonylcyclohexa-2,5-diene-1,4-dione]
- light sensitivity of solutions [1]: light sensitive
- RT result [2, 3]: slightly
- Hot to RT result [2, 3]: slightly soluble
- RT to Cold result [2, 3]: slightly soluble-
- Hot Result [2, 3]: mostly
- RT result [2, 4]: partially
- Hot to RT result [2, 4]: partially
- RT to Cold result [2, 4]: slightly
- Hot Result [2, 4]: melted
- RT result [2, 5]: partially
- Hot to RT result [2, 5]: partially soluble
- RT to Cold result [2, 5]: slightly soluble
- Hot Result [2, 5]: melted
- RT result [2, 6]: partially
- Hot to RT result [2, 6]: partially soluble
- RT to Cold result [2, 6]: mostly insoluble
- Hot Result [2, 6]: soluble
- RT result ([2]; EtOH, approx conc. 100 mg/mL): partially
- Hot to RT result ([2]; EtOH, approx conc. 100 mg/mL): slightly soluble
- RT to Cold result ([2]; EtOH, approx conc. 100 mg/mL): partially soluble-
- Hot Result ([2]; EtOH, approx conc. 100 mg/mL): soluble
- RT result ([2]; IPA, approx conc. 100 mg/mL): soluble
- Hot to RT result ([2]; IPA, approx conc. 100 mg/mL): soluble
- RT to Cold result ([2]; IPA, approx conc. 100 mg/mL): partially soluble-
- Hot Result ([2]; IPA, approx conc. 100 mg/mL): soluble
- RT result ([2]; MeCN, approx conc. 100 mg/mL): soluble
- Hot to RT result ([2]; MeCN, approx conc. 100 mg/mL): soluble
- RT to Cold result ([2]; MeCN, approx conc. 100 mg/mL): mostly soluble-
- Hot Result ([2]; MeCN, approx conc. 100 mg/mL): soluble
- RT result ([2]; MeOH, approx conc. 100 mg/mL): slightly
- Hot to RT result ([2]; MeOH, approx conc. 100 mg/mL): slightly soluble
- RT to Cold result ([2]; MeOH, approx conc. 100 mg/mL): insoluble-long needles
- Hot Result ([2]; MeOH, approx conc. 100 mg/mL): soluble
- RT result ([2]; THF, approx conc. 100 mg/mL): soluble
- Hot to RT result ([2]; THF, approx conc. 100 mg/mL): soluble
- RT to Cold result ([2]; THF, approx conc. 100 mg/mL): soluble
- Hot Result ([2]; THF, approx conc. 100 mg/mL): soluble
- RT result ([2]; water, approx conc. 10 mg/mL): insoluble
- Hot to RT result ([2]; water, approx conc. 10 mg/mL): insoluble
- RT to Cold result ([2]; water, approx conc. 10 mg/mL): insoluble
- Hot Result ([2]; water, approx conc. 10 mg/mL): insoluble
